The target of this assay is T1, CatSper channel (Homo sapiens, UniProt Q7RTX7+Q86XQ3+Q8NEC5+Q96P56).
T1 construct: endogenous in cells; host or cells: Sperm cells in untreated ejaculate from a healthy volunteer
Description: CatSper modulation test: sperm motility in a test solution essentially free of free calcium, determined by light microscopy. It is filed as cell-based. The following applies: for motility: after about 10 minutes, normalized (first reading in the Ca2+-containing control = 100%). How it is done: • Fig. 1: Time course of sperm motility in the CatSper modulation test. […] Sperm cells were exposed to a calcium-free buffer (grey curves) containing different concentrations of the exemplified CatSper inhibitor RU1968 at time t = 0 minutes up to t = 90 minutes. A control sample (black, HTF) was kept under Ca^2+-containing conditions. During a subsequent incubation at 37 °C, the motility in the sperm population was determined by light microscopy; the data was normalized (first reading in the Ca^2+-containing control = 100%).
The Ca^2+-containing solution being used in Figure 1 of the present invention corresponds to the HTF buffer (human tubular fluid) used for years in research with spermatozoa (Strünker et al. 2011, Nature 471, 382-386). The calcium-free solution is also based on this buffer. It is very likely that the test can also be carried out with buffer solutions of a different composition, as long as they are kept in the physiological range and comprise the herein mentioned ranges or values for calcium and magnesium. Table 1: Composition of the Ca2+-containing and the Ca2+-free solutions being used in the method of the present invention.
For performing a CatSper-Screening-Test, 178 µl of the calcium-free solution and 2 µl of the solvent used to prepare the test compound solution is used to produce the control solution (calcium-free solution without any test compound). A test solution is produced by adding 178 µl of the calcium-free solution and 2 µl of the test compound solution together. Optionally, another 180 µl of the calcium-containing solution (without any test compound) may further be used in another vial (see particular composition above in Tab. 1). The solutions are then stored at 4 °C and heated to 37 °C before use to warm up the solutions.
A spermatozoa (semen) sample is then obtained from a subject who is a healthy volunteer. A volume of 20 µl of the ejaculate is added to the calcium-free control, calcium-free test and calcium-containing solutions in each micro reaction tube. By low-speed vortex mixing or repeatedly inverting the micro reaction tubes, a homogeneous spermatozoa suspension is generated. Both micro reaction tubes are then incubated at 37 °C for 15 min. After incubation, the mixing step is repeated and the spermatozoa motility is determined for the conditions by counting a total number of 200 sperm cells. The fraction of motile sperm is then compared for the calcium-free control solution with and without any test compound. If a difference in the fraction of motile sperm is determined the test compound is identified as inhibitor / activator or no modulator of the CatSper activity.

SMILES strings stand for the structures.

`C[C@@H](NCCN(C)C)[C@@H]1CC[C@@H]2[C@H]3CCc4cc(O)ccc4[C@@H]3CC[C@]21C` [RU1968]: the motility result is given as “about 106%” (3 µM inhibitor in Ca2+-free buffer, 37 °C, Fig. 2); roughly 110% (6 µM inhibitor in Ca2+-free buffer, 37 °C, Fig. 2); “about 116%” (12 µM inhibitor in Ca2+-free buffer, 37 °C, Fig. 2). The “behaviour of sperm cells from healthy volunteers in the CatSper-Screening-Test” value (30 µM, calcium-free solution, Fig. 1) is “behave in the same way as sperm from patients with CatSper dysfunction”. In addition, the “sperm cell motility under essentially Ca2+-free conditions” value (different concentrations, t = 0 minutes up to t = 90 minutes, 37 °C, Fig. 2) is listed as “modulates the sperm cell motility in a concentration-dependent manner”.
Turning to `CC(=O)[C@H]1CC[C@H]2[C@@H]3CCC4=CC(=O)CC[C@]4(C)[C@H]3CC[C@]12C` [Progesterone, progesterone], where the note is “10 µM, calcium-free solution, Fig. 1”, the “effect on CatSper ion channel activity in the CatSper-Screening-Test” value is given as “activates CatSper ion channel activity”.

Source of the values: patent EP4222493B1, “SCREENING TEST FOR CATSPER MODULATORS” (Westfälische Wilhelms-Universität Münster, priority 2020, dated 2022).
